Source: patent US20090312438A1, “Compositions and Methods for Attenuating the Formation of A2E in the Retinal Pigment Epithelium” (priority 2008, published 2009)

How the values were obtained:
[1] = female, Japanese quail (Coturnix japonica), in vivo, 16 weeks
Method: Tissues were homogenized and extracted three times with tetrahydrofuran containing 0.1% butylated hydroxytoluene by sonication at 5° C. to 10° C. for 30 minutes each time. The combined organic extracts were evaporated to dryness under vacuum at room temperature. The dried residue was redissolved in one ml of HPLC mobile phase and centrifuged at approximately 2000 g for 10 minutes to remove the minor amounts of insoluble solid particles prior to analysis. The majority of carotenoids in bird retinas are esterified (32), so after the initial extraction, the dried carotenoid residue was redissolved in hexane and subjected to saponification in 1.8% (w/v) methanolic potassium hydroxide (KOH) for two hours at room temperature. After saponification, the samples were washed with water until the samples achieved neutral pH. The vials were centrifuged at approximately 2000 g to remove the minor amounts of insoluble solid particles. The solution was evaporated to dryness on a rotary evaporator under reduced pressure at room temperature and reconstituted in the appropriate HPLC solvents.
HPLC analysis was performed on a Thermo Separations (San Jose, Calif.) HPLC system with binary gradient pumps, a refrigerated autosampler, a UV6000 photodiode-array detector (PDA), and an MSQ single quadrupole mass spectrometer. […]

[2] = tested on: A2E formation in the RPE; assay: Xanthophyll supplementation in Japanese quail: A2E in RPE/choroid by HPLC-MS; format: in vivo, Japanese quail (Coturnix japonica); settings: for Rise of A2E levels from baseline levels: 16-week supplementation, P=0.1, unsupplemented control rose more than six-fold; for A2E oxidation products in mass spectra versus control group: A2E extracted from RPE, FIG. 5; for A2E levels in the RPE, control group relative to supplemented groups: FIG. 4, 16 weeks, N=4, P<0.001; for Inhibition of A2E formation relative to birds fed a control diet low in carotenoids: high dose supplementation
Method: A2E and its isomers were extracted and isolated from RPE/choroid using a previously described method (8). RPE samples were homogenized in 1:1 CHCl3/MeOH (2 ml) and 0.01 M phosphate-buffered saline (PBS) (1 ml). The homogenizer was washed with 1:1 CHCl3/MeOH (2 ml), 0.01 M PBS (1 ml), and then CHCl3 (2 ml) and CH2Cl2 (2 ml) were added to remove any remaining material. All solutions were combined, and the organic layer was extracted from the aqueous layer. The combined organic extracts were evaporated to dryness under vacuum at room temperature. The residue was dissolved in MeOH for HPLC. The vials were centrifuged at approximately 2000 g to remove the minor amounts of insoluble solid particles prior to analysis.
HPLC analysis was performed on a Thermo Separations (San Jose, Calif.) HPLC system with binary gradient pumps, a refrigerated autosampler, a UV6000 photodiode-array detector (PDA), and an MSQ single quadrupole mass spectrometer. Peak identities were confirmed by PDA and mass spectra and by co-elution with authentic standards as necessary. Calibration was by external standardization curves with authentic standards. […] Typical reproducibility with external standardization in our laboratory is +5%.
A2E HPLC analysis: The dried A2E samples were redissolved in 100 μl of MeOH. A gradient of 84-100% acetonitrile (A) with 0.05% trifluoroacetic acid in H2O (B) over 35 minutes was used to separate A2E at a flow rate of 1.0 ml min^−1 on a reverse-phase C18 column (4.6×250 mm, Phenomenex, Atlanta, Ga.). The column was maintained at room temperature, and the HPLC PDA detector was operated at 440 nm.
MS analysis was performed using a Thermo Separations (San Jose, Calif.) MSQ single quadrupole mass spectrometer, equipped with an electron spray ionization (ESI) source and an atmospheric pressure chemical ionization (APCI) source. A2E and carotenoids were ionized in positive ion ESI and APCI modes, respectively. To avoid overloading of eluted solvent molecules in the mass spectrometer and to optimize ionization conditions, 50% of the eluate was directed to waste with the help of a diverter valve after the PDA detector. The delay time from PDA to MS was 0.13 minutes. […] Selected ion monitoring (SIM) was performed using dwell time of 200 ms for each channel. In SIM mode, the m/z channels 592±3, 608±1.5, 624±1.5, and 640±1.5 were used for A2E and its oxidative products. Typical detection conditions for A2E were: RF lens bias voltage 0.1V, cone voltage 80V and heater temperature 550° C. The ion source and tuning lens parameters were optimized automatically by infusing A2E samples via the injector. For carotenoids, the m/z channels 551±0.7 and 569±0.7 were used for lutein, and 569±0.8 for zeaxanthin. Typical detection conditions were: corona discharge current 5 μA, cone voltage 80V, and probe temperature 500° C.
Adult Japanese quail (Coturnix japonica) were procured from B&D farms (Harrah, Okla.), and all experiments were reviewed and approved by the University of Utah's Institutional Animal Care and Use Committee. The birds were kept under ambient room light on a 12-hour light-dark cycle, and they were divided into three groups of four birds: lutein supplemented, zeaxanthin supplemented, and unsupplemented. All birds were fed daily with a standard turkey diet (˜20 g/day) (Purina Mills, St. Louis, Mo.) that was low in carotenoids (1.10 ng/g). The supplemented birds were gavaged daily with 0.5 ml of a microbial extract rich in lutein or zeaxanthin for 16 weeks (0.2 mg of carotenoid per bird per day). Lutein was prepared from the freshwater alga Chlorella protothecoides CS 41 (Microalgae Supply Service, CSIRO, Hobart Australia) under conditions described earlier (36). Zeaxanthin was obtained from the non-pathogenic bacteria Flavobacterium multivorum ATCC 55238 grown on liquid growth medium as detailed earlier (37). […]

[3] = extensive use in humans as dietary supplements; cited from earlier work

Increase of total lutein and zeaxanthin levels (retina) relative to baseline [1] [fold] | Rise of total retinal carotenoid levels relative to baseline [1] [fold] | Compound | Rise of A2E levels from baseline levels [2] | A2E oxidation products in mass spectra versus control group [2] | A2E levels in the RPE, control group relative to supplemented groups [2] | Inhibition of A2E formation relative to birds fed a control diet low in carotenoids [2] | Toxicity in humans as dietary supplements [3]
2.8 | 1.6 | CC1=C[C@H](O)CC(C)(C)[C@H]1/C=C/C(C)=C/C=C/C(C)=C/C=C/C=C(C)/C=C/C=C(C)/C=C/C1=C(C)C[C@@H](O)CC1(C)C [Lutein, (3R, 3′R, 6′R)-lutein] | barely any rise from baseline levels | control group had higher levels of oxidation products in comparison | significantly higher for the control group | profound inhibition of A2E formation | no toxicity has ever been reported
– | – | CC1=C(/C=C/C(C)=C/C=C/C(C)=C/C=C/C=C(C)/C=C/C=C(C)/C=C/C2=C(C)C[C@@H](O)CC2(C)C)C(C)(C)C[C@H](O)C1 [Zeaxanthin, (3R, 3′R)-zeaxanthin] | barely any rise from baseline levels | control group had higher levels of oxidation products in comparison | significantly higher for the control group | profound inhibition of A2E formation | no toxicity has ever been reported
